Measurements published in PMC10455239, “Antimicrobial, Cytotoxic, and α-Glucosidase Inhibitory Activities of Ethanol Extract and Chemical Constituents Isolated from Homotrigona apicalis Propolis—In Vitro and Molecular Docking Studies” (Life, 2023).
Converted amounts (≈) assume the structure as drawn. Where two headings read alike, the source gives them in different places.

Legend:
Bacillus cereus = experiment: Antimicrobial activity, broth microdilution; format: cell-based; details: read-out: IC50 B. cereus
Procedure: (§1) The antimicrobial activity assay was performed using the broth microdilution method. Dimethyl sulfoxide (DMSO) was used for the preparation of compound solutions at concentrations of 256 μg/mL, 64 μg/mL, 16 μg/mL, 4 μg/mL, and 1 μg/mL. Three strains of Gram-positive bacteria (Staphylococcus aureus, Bacillus cereus, and Lactobacillus fermentum); three strains of Gram-negative bacteria (Salmonella enterica, Escherichia coli, and Pseudomonas aeruginosa), and fungus Candida albicans (obtained from the American Type Culture Collection (ATCC)) were used for the test. Ampicillin, Cefotaxim, and Nystatin were used as positive controls for the Gram (+) bacterial and Gram (−) bacterial strains and C. albicans, respectively. The activity of the isolated compounds was expressed as an IC50 value (half-maximal inhibitory concentration). The IC50 values were calculated using the program […].

Lactobacillus fermentum = experiment: Antimicrobial activity, broth microdilution; format: cell-based; details: read-out: IC50 L. fermentum
Procedure: as §1

Staphylococcus aureus = experiment: Antimicrobial activity, broth microdilution; format: cell-based; details: read-out: IC50 S. aureus
Procedure: as §1

Escherichia coli = experiment: Antimicrobial activity, broth microdilution; format: cell-based; details: for IC50: Escherichia coli, read-out: IC50 E. coli
Procedure: as §1

Pseudomonas aeruginosa = experiment: Antimicrobial activity, broth microdilution; format: cell-based; details: for IC50: Pseudomonas aeruginosa, read-out: IC50 P. aeruginosa
Procedure: as §1

Salmonella enterica = experiment: Antimicrobial activity, broth microdilution; format: cell-based; details: Gram (−) strain; for IC50: Salmonella enterica, read-out: IC50 S. enterica
Procedure: as §1

Candida albicans = experiment: Antimicrobial activity, broth microdilution; format: cell-based; details: Candida albicans, read-out: IC50 C. albicans
Procedure: as §1

[1] = tested on: A-549 (human lung adenocarcinoma); experiment: Cytotoxicity assay (MTT); format: cell-based; details: A549, MTT, 48 h incubation, read-out: IC50 A-549
Procedure: (§2) The cytotoxic assays were evaluated in triplicate against three cancer cell lines, namely KB (epidermal carcinoma), A-549 (human lung adenocarcinoma), and HepG-2 (human hepatoma) (ATCC), with a modification of the previously published method. The cells were cultured in Dulbecco’s D-MEM medium (Gibco, Life Technologies Corporation, Grand Island, NY, USA), supplemented with 10% fetal calf serum (Sigma-Aldrich, St. Loius, MO, USA), L-glutamine (2 mM) (Sigma-Aldrich, St. Loius, MO, USA), penicillin G (100 UI/mL), and streptomycin (100 μg/mL) (Sigma-Aldrich, St. Loius, MO, USA). The compound solutions were prepared in DMSO, and the cytotoxic assays were conducted in 96-well microtiter plates against the cancer cells (3 × 10^5 cells/mL concentration). After 48 h incubation at 37 °C in an air/CO2 (95:5) atmosphere, with or without isolated compounds, MTT reagent was added to each well (0.5 mg/mL). The cell growth was assessed by measuring the colorimetric of formazan at 570 nm using a microplate reader. […] Ellipticine was used as a positive reference.

HepG-2 (human hepatoma) = experiment: Cytotoxicity assay (MTT); format: cell-based; details: HepG2, MTT, 48 h incubation, read-out: IC50 Hep-G2
Procedure: as §2

KB (epidermal carcinoma) = experiment: Cytotoxicity assay (MTT); format: cell-based; details: MTT, 48 h incubation; read-out: IC50 KB
Procedure: as §2

α-glucosidase = target: T1, α-glucosidase (Saccharomyces cerevisiae, UniProt P53341); experiment: biochemical
T1 construct: purchased Sigma-Aldrich G0660
Procedure: An assay for the α-glucosidase inhibitory activity was carried out by a modification of the published method. Briefly, solutions of α-glucosidase (Saccharomyces cerevisiae, G0660, Sigma-Aldrich, St. Louis, MO, USA) and p-nitrophenyl α-D-glucopyranoside (Sigma-Aldrich, St. Louis, MO, USA) were prepared in a phosphate buffer (100 mM, pH 6.8, Sigma-Aldrich, St. Louis, MO, USA). […] The compound solution (2 μL) and 40 µL of enzyme solution (0.5 U/mL) in 120 µL phosphate buffer were mixed. After 5 min of preincubation, 20 µL of 10 mM p-nitrophenyl α-D-glucopyranoside prepared in phosphate buffer was added, and the reaction mixture was incubated for 30 min at 37 °C. The reaction was quenched by the addition of 80 µL of 0.2 M Na2CO3. The absorbance of the released p-nitrophenol was measured at 410 nm using a Biotek reader. The % inhibition was calculated using the following equation:Inhibition (%) = [1 − (Asample/Acontrol)] ∗ 100
The IC50 values of the isolated compounds were calculated using the program Table Curve.

[2] = Table S1, α-glucosidase, read-out: IC50 (Table S1) (converted)
[3] = p-nitrophenyl α-D-glucopyranoside, pH 6.8, 37 °C, read-out: IC50 α-Glucosidase Inhibitory Activity

T1 sequence (P53341 whole entry): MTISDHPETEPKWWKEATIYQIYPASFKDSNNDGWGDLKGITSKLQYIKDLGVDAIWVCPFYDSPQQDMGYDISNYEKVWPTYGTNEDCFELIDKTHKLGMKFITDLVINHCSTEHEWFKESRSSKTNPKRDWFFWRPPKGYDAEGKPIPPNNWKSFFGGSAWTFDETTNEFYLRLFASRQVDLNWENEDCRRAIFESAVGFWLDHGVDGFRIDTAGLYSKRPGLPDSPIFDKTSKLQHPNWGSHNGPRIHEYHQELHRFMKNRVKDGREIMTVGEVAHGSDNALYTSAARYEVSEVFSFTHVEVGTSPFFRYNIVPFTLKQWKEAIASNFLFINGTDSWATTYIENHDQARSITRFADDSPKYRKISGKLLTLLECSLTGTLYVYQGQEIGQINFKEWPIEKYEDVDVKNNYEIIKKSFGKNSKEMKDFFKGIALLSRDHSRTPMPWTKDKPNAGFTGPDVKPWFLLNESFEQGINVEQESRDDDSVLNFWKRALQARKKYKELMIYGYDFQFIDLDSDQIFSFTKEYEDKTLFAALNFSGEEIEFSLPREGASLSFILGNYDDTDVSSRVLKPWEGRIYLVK

Row | IC50 (Bacillus cereus; Gram (+) strain) | IC50 (Staphylococcus aureus; Gram (+) strain) | Compound | IC50 (Lactobacillus fermentum; Gram (+) strain) | IC50 E. coli (Escherichia coli; Gram (−) strain) | IC50 P. aeruginosa (Pseudomonas aeruginosa; Gram (−) strain) | IC50 S. enterica (Salmonella enterica) | IC50 (Bacillus cereus) | IC50 (Candida albicans) | IC50 (Escherichia coli) | IC50 (Pseudomonas aeruginosa) | IC50 (Salmonella enterica) | IC50 (Staphylococcus aureus) | IC50 [1] | IC50 (HepG-2 (human hepatoma)) | IC50 (KB (epidermal carcinoma)) | IC50 (α-glucosidase; [2]) | IC50 (α-glucosidase; [3]) | IC50 (Lactobacillus fermentum)
1 | 3.62 ± 0.15 µg/mL (≈ 10.4 µM) | 0.02 ± 0.005 µg/mL (≈ 0.0572 µM) | CC1(C)S[C@@H]2[C@H](NC(=O)[C@H](N)c3ccccc3)C(=O)N2[C@H]1C(=O)O [A, Ampicillin, reference compound] | 1.03 ± 0.07 µg/mL (≈ 2.95 µM) |  |  |  |  |  |  |  |  |  |  |  |  |  |  | 
2 |  |  | CO/N=C(\C(=O)N[C@@H]1C(=O)N2C(C(=O)O)=C(COC(C)=O)CS[C@H]12)c1csc(N)n1 [C, Cefotaxim, reference compound] |  | 0.07 ± 0.02 µg/mL (≈ 0.154 µM) | 4.34 ± 0.15 µg/mL (≈ 9.53 µM) | 0.43 ± 0.05 µg/mL (≈ 0.944 µM) |  |  |  |  |  |  |  |  |  |  |  | 
3 |  |  | C=C1CC[C@@H]2[C@H]([C@H]3[C@H]1CC[C@]3(C)O)C2(C)C [Compound 1, spathulenol] | 206 ± 5.23 µg/mL (≈ 934 µM) |  |  |  | > 256 µg/mL | > 256 µg/mL | > 256 µg/mL | > 256 µg/mL | > 256 µg/mL | > 256 µg/mL | > 128 µg/mL | > 128 µg/mL | > 128 µg/mL | > 1160 µM | > 1160 µM | 
4 |  |  | CC1(C)[C@H]2[C@H]3[C@@H](CC[C@]3(C)O)[C@](C)(O)CC[C@H]21 [Compound 2, 1αH,5βH-aromandendrane-4β,10α-diol] |  |  |  |  | > 256 µg/mL | > 256 µg/mL | > 256 µg/mL | > 256 µg/mL | > 256 µg/mL | > 256 µg/mL | > 128 µg/mL | > 128 µg/mL | > 128 µg/mL | > 1070 µM | > 1070 µM | > 256 µg/mL
5 |  |  | C=C1CC[C@@H](O)[C@]2(C)CC[C@@H](C(C)C)[C@H](O)[C@@H]12 [Compound 3, 1β,6α-dihydroxy-4(15)-eudesmene] |  |  |  |  | > 256 µg/mL | > 256 µg/mL | > 256 µg/mL | > 256 µg/mL | > 256 µg/mL | > 256 µg/mL | > 128 µg/mL | > 128 µg/mL | > 128 µg/mL | > 1070 µM | > 1070 µM | > 256 µg/mL
6 |  |  | CC1(C)[C@H]2[C@H]3[C@H](CC[C@@]3(C)O)[C@@](C)(O)CC[C@H]21 [Compound 4, 1βH,5βH-aromandendrane-4α,10β-diol] |  |  |  |  | > 256 µg/mL | > 256 µg/mL | > 256 µg/mL | > 256 µg/mL | > 256 µg/mL | > 256 µg/mL | > 128 µg/mL | > 128 µg/mL | 89.1 ± 9.67 µg/mL (≈ 374 µM) | > 1070 µM | > 1070 µM | > 256 µg/mL
